Laboratory results from patent US9687548B2, “Photoactivatable caged tamoxifen and tamoxifen derivative molecules and methods of use thereof” (Dana-Farber Cancer Institute, Inc., priority 2012, dated 2017).
Entries after “also recorded” stand apart in the source; their conditions may differ.

Assays:
CreER fusion protein = molecular target: T1, CreER fusion protein (Homo sapiens, UniProt P03372, G400V/L544A/M543A); assay: X-gal (lacZ) reporter in MEFs from Rosa26CreERT2; R26R (Lox-STOP-Lox-lacZ) embryos; assay type: cell-based, mouse; details: with vs without 365 nm UV light exposure; X-gal stained MEFs
T1 construct: host or cells: cells and tissues (MEFs, mammary epithelial acini, skin, mammary gland) of heterozygous Rosa26CreER^T2 knock-in reporter mice; the other entry of the earlier key: cre (P06956, Recombinase cre)
T1 sequence (P03372 with tags, fused parts or gaps G400V/M543A/L544A): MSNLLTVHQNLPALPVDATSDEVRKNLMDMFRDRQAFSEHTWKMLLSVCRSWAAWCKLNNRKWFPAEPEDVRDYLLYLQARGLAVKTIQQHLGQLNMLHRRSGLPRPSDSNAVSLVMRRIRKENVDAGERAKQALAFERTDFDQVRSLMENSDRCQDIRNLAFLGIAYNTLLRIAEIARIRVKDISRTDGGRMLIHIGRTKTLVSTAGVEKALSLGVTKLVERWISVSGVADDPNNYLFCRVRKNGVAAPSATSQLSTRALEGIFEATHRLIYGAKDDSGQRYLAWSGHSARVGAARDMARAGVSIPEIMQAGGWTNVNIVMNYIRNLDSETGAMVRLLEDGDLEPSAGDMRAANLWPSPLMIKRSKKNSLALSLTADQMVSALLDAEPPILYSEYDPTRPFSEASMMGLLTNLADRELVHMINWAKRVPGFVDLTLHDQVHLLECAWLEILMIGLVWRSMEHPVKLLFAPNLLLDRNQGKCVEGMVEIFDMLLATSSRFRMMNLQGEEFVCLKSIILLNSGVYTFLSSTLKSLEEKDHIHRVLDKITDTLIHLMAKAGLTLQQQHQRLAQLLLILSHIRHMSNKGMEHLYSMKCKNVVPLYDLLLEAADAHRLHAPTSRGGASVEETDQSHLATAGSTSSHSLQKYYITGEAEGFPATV
Experimental: (§1) Mouse embryonic fibroblasts (MEFs) were isolated as described (Sharpless et al., Mol. Cell 8:1187-1196, 2001) and grown in DMEM with 10% FBS. To shed UV light on the cells, the cells were first grown in 60-mm dish overnight to become nearly confluent. The next day, the medium was replaced with medium containing caged 4-OHC at 5 μM and incubated for 30 minutes. The cells were washed twice quickly with warm PBS and covered with fresh medium. The dish was placed on the UV emission surface of a handheld 6 W long-wavelength UV lamp (UVP, LLC), and UV light was kept on for a designated period of time. The cells were put back into the incubator to culture for 48-72 h before live imaging or flow cytometric analysis.
Mouse embryonic fibroblasts (MEFs) isolated from the Rosa26CreER^T2; mT/mG mice in cell culture were used to test the caged 4-OHC activity. The Rosa26CreER^T2; mT/mG MEFs were treated with either 4-OHC or caged 4-OHC and illuminated at 365 nm. […] To further test the caged 4-OHC, another reporter mouse was generated (Rosa26CreER^T2; R26R mice). The Rosa26CreER^T2; R26R mice were generated by crossing homozygous Rosa26CreER^T2 mice with homozygous Rosa26-loxP-STOP-loxP-lacZ mice (experimental system shown in FIG. 9).
An additional set of experiments were performed to test the ability of Caged Molecules I, II, and III (shown in Schematic #5) to induce nuclear translocation of a ER fusion protein in a cell following light exposure. Mouse embryonic fibroblasts from Rosa26-CreER^T2; Lox-STOP-Lox-lacZ embryos were treated with 5 μM 4-OHC (positive control; lower left panel), treat Caged Molecule I (“Compound I”) with or without 365 nm UV light exposure (top right and top center panels, respectively), Caged Molecule II (“Compound II”) with or without 365 nm UV light exposure (middle right and middle center panels, respectively), or Caged Molecule III (“Compound III”) with or without 365 UV light exposure (bottom right and […] panels, respectively).

CreER [1] = molecular target: T2, CreER (Homo sapiens, UniProt P03372, G400V/L544A/M543A); assay: In vivo photoactivation in skin of Rosa26CreERT2; mT/mG mice (OV-110 imaging); set-up: species or system mouse
T2 construct: host or cells: cells and tissues (MEFs, mammary epithelial acini, skin, mammary gland) of heterozygous Rosa26CreER^T2 knock-in reporter mice; the other entry of the earlier key: cre (P06956, Recombinase cre)
T2 sequence (P03372 with tags, fused parts or gaps G400V/M543A/L544A): T1 sequence (P03372 with tags, fused parts or gaps G400V/M543A/L544A)
Experimental: (§2) Female mice of 6-8 weeks old were clean shaven on the dorsal and ventral sides. The caged 4-OHC was dissolved in 20% Solutol for in vivo delivery. The vehicle or 1 mg caged 4-OHC in vehicle was injected intraperitoneally. One hour later, the mice were anesthetized with isoflurane and exposed to UV light from the hand-held 6 W long-wavelength UV lamp (UVP, LLC) for 15 minutes. Alternatively, for mammary tissue illumination, the right inguinal (#4) mammary fat pad was exposed by creating a small skin flap and illumination with UV light for 15 minutes. For enhanced photoconversion, this procedure was repeated four times. On the seventh day, the mice were imaged with Olympus OV-110 epifluorescence imager (Thurber et al., PLoS One 4:e8053, 2009) to detect fluorescent signals emitted from the skin on the dorsal and ventral sides. Alternatively, the left and right mammary glands were dissected and immediately imaged using the intravital laser scanning microscope IV-110 (Kelly et al., PLoS Med. 5:e85, 2008).

[2] = 4-OHC compared with 4-OHT; cited from earlier work
CreER [3] = molecular target: T2, CreER; assay: Photoactivated EGFP expression in mammary acinus 3D culture from Rosa26CreERT2; mT/mG mice; assay type: cell-based, mouse; details: 5 μM, 1 min UV lamp or 60× objective DAPI filter
Experimental: Mouse mammary epithelial cells […] were isolated from 6-8 week old female Rosa26CreER^T2; mT/mG mice as previously described (Tiede et al., PLoS One 4:e8035, 2009). Briefly, mammary glands were excised, minced using scalpels, and digested for 1 hour in 300 U/mL type 1A collagenase (Sigma) and 100 U/mL hyaluronidase (Sigma). The cells were then treated with 0.25% trypsin/EDTA, dispase (Invitrogen)/DNase (Sigma), and ACK lysing buffer (Invitrogen) in succession. Between each treatment, cells were rinsed in MEGM (1:1 DMEM:F12 Ham supplemented with […], 500 ng/mL hydrocortisone, 10 ng/mL EGF, 20 ng/mL cholera toxin, 5% bovine calf serum, and 1× penicillin/streptomycin). Afterwards, cells were filtered twice through […] nylon cell strainers and seeded in 35-mm dishes that contained a layer of Growth Factor Reduced Matrigel (BD Biosciences) measuring approximately 1-2 mm thickness. Acini usually formed in 4-8 days. During photoactivation, the acini were incubated with MEGM containing 5 μM caged 4-OHC for 1 hour. The cells were washed twice quickly with warm PBS and covered with fresh medium. The dish was placed on the UV emission surface of a hand-held 6 W long-wavelength UV lamp (UVP, LLC, exposure time: 1 minute) or above the 60× objective of an inverted epifluorescent microscope equipped with a standard DAPI filter set. […]

[4] = UV-Vis and HPLC-MS characterization of the photocleavage of caged 4-OHC; assay type: physicochemical
Experimental: A 0.25 mM solution of caged 4-OHC in 1:1 (v/v) water:acetonitrile was used for the UV-Vis spectroscopic characterization of the photocleavage reaction. The solution of the caged 4-OHC was placed in a 96-well black clear bottom microplate. The solution was then irradiated at ˜365 nm using a hand-held UV lamp. After light exposure, UV-Vis spectra of the solution was recorded in a TECAN microplate reader. A time course of the photocleavage reaction was monitored by exposing the caged 4-OHC solution to light for different durations, and subsequently recording the UV-Vis spectra of the solution.
A 2.0 mM solution of caged 4-OHC in 1:1 (v/v) water: acetonitrile was used for the HPLC-MS study. The solution of the caged 4-OHC was placed in a glass vial and irradiated at ˜365 nm using a hand-held UV lamp. Aliquots were taken at different time intervals and injected to the HPLC-MS machine for analysis. Prism 5 (GraphPad, La Jolla, Calif.) for Mac was used to plot the data.

CreER [5] = molecular target: T2, CreER; assay: Photoactivated EGFP expression in MEFs from Rosa26CreERT2; mT/mG mice; assay type: cell-based, mouse; details: 5 μM, 365 nm illumination vs no light
Experimental: as §1
A recently developed double-fluorescent Cre reporter mouse, the mT/mG strain (Muzumdar, Genesis 45:593, 2007) was used to design a biological system that can faithfully report on the induced activity of CreER. This mouse model expresses tdTomato prior to and EGFP following Cre-mediated recombination ubiquitously in tissues. […] The photoinduced activity of caged tamoxifen and caged tamoxifen derivative molecules can be assessed by illuminating the cells and tissues from these mice and looking for EGFP-expressed cells (FIG. 1).

CreER [6] = molecular target: T2, CreER; assay: In vivo photoactivation in mammary gland of female Rosa26CreERT2; mT/mG mice (ex vivo IV-110 imaging); set-up: species or system mouse
Experimental: as §2

[7] = Stability of caged molecule in the absence of light; assay type: physicochemical; details: in the dark / prior to illumination

For `CCOC(=O)COc1c(OC)cc([N+](=O)[O-])c(COc2ccc(C(=C3CCCCC3)c3ccc(OCCN(C)C)cc3)cc2)c1[N+](=O)[O-]` [Caged Molecule II], the “nuclear translocation / nuclear transport of the ER fusion protein” value (CreER fusion protein) was “resulted in an increase in the nuclear transport of the ER fusion protein”.
In the case of `CN(C)CCOc1ccc(C(=C2CCCCC2)c2ccc(O)cc2)cc1` [4-OHC, 4-hydroxycyclofen, reference compound], the “EGFP signal at whole mouse level” value (CreER [1]; treated with 4-OHC (uncaged)) is given as “strong EGFP signal was detected” and the photostability [2] is given as “better photostability”.
In the case of `COc1cc(C(C)Oc2ccc(C(=C3CCCCC3)c3ccc(OCCN(C)C)cc3)cc2)c([N+](=O)[O-])cc1OC` (stereo not drawn) [caged 4-OHC, 1-(4,5-dimethoxy-2-nitrophenyl) ethanol (DMNPE) caged 4-hydroxycyclofen], the “EGFP signal on illuminated ventral vs non-illuminated dorsal skin” value (CreER [1]; intraperitoneal, UV illumination only on ventral skin) is reported as “EGFP signal was observed on the ventral skin but not on the dorsal skin”, the “average increase in fluorescence intensity” value (CreER [1]; intraperitoneal, ventral skin UV illuminated) is reported as 2.5 fold and the “EGFP expression in response to photoactivation” value (CreER [3]) is reported as “very tight control of EGFP expression in response to photoactivation”. The “conversion to / release of 4-OHC upon UV irradiation” value ([4]; HPLC-MS, ~365 nm, 2.0 mM in water:acetonitrile 1:1) was “quantitative, unidirectional conversion to 4-OHC; also recorded: quantitative release of 4-OHC”, the “time to completion of photochemical (photocleavage) reaction” value ([4]; hand-held 365 nm UV lamp, UV-Vis, water:acetonitrile 1:1) was no more than 10 min and the “EGFP expression after photocleavage” value (CreER [5]) was “induced EGFP expression in a stringent fashion”. The “EGFP induction in illuminated right vs non-illuminated left mammary gland” value (CreER [6]; intraperitoneal, 365 nm light on right mammary gland, seven days later) was “the right, but not the left, mammary gland showed strong EGFP induction; also recorded: expressed EGFP”, the “diffusion after uncaging to other organs” value (CreER [6]; skin and mammary gland data taken together) was “limited diffusion after uncaging” and the “breakdown in the absence of light exposure” value [7] was “did not appear to show any sign of breakdown prior to illumination”.
In the case of “4-hydrocyclofen conjugated with the photoactivatable 4,5-demethoxy-2-nitrophen methanol (DMNPM) group [DMNPM caged 4-hydroxycyclofen, reference compound]”, the “breakdown in the absence of light exposure” value [7] is reported as “spontaneous breakdown in the absence of appropriate light exposure”.
In the case of `CCOc1c(OC)cc([N+](=O)[O-])c(COc2ccc(C(=C3CCCCC3)c3ccc(OCCN(C)C)cc3)cc2)c1[N+](=O)[O-]` [Caged Molecule I], the “nuclear translocation / nuclear transport of the ER fusion protein” value (CreER fusion protein) is reported as “resulted in an increase in the nuclear transport of the ER fusion protein”.
For `COc1ccc(-c2ccc([N+](=O)[O-])c(C(C)COc3ccc(C(=C4CCCCC4)c4ccc(OCCN(C)C)cc4)cc3)c2)cc1` (stereo not drawn) [Caged Molecule III], the “nuclear translocation / nuclear transport of the ER fusion protein” value (CreER fusion protein) was “resulted in an increase in the nuclear transport of the ER fusion protein”.
